Tests used:
[1] = target: T1, GDP-loaded KRAS (1-169) G12C, C51S, C80L, C118S (Homo sapiens, UniProt P01116, C118S/C51S/C80L/G12C); assay: Mass Spectrometry Reactivity Assay (MSRA): covalent adduct of compound and KRAS G12C, Percent Modification; format: binding; conditions: for MSRA (% modification) 5.0 μM 0.017 hr / MSRA (% modification) 5.0 μM 0.25 hr: 5.0 μM compound; for MSRA (% modification) 10 μM 0.50 hr / MSRA (% modification) 10 μM 0.25 hr: 10 μM compound
T1 construct: GDP-loaded KRAS (1-169) G12C, C51S, C80L, C118S
Outline: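 GDP-loaded KRAS(1-169) G12C/C51S/C80L/C118S at 5 μM in 25 mM Hepes pH 7.5, 200 mM NaCl, 5% glycerol incubated at RT with compound (typically 5 or 10 μM final, 1% DMSO). Quenched in formic acid at 1-60 min; intact-protein LC-TOF MS gives % modification = modified/(modified+unmodified).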

KRAS G12C = KRAS G12C (Homo sapiens, UniProt P01116, G12C); assay: Cell Activity Assay: accumulation of GDP-bound KRAS G12C in MIAPaCa-2 cells (Raf-1 RBD capture, MSD readout); format: cell-based; parameters: endogenous in cells; host or cells: MIAPaCa-2; conditions: 6 hours, assay limit is 30.00
Outline: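 MIAPaCa-2 cells exposed 6 h at 37 °C to 3-fold compound dilutions (0.3% DMSO final), then lysed. Active GTP-KRAS captured on Raf-1 RBD-coated plates, detected with anti-pan-Ras and SULFO-TAG secondary by MSD electrochemiluminescence. Signal normalized to DMSO and maximum inhibition; IC50 from 4-parameter fit.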

C=CC(=O)N1CCN(c2nc(Oc3cccc4c3CN(C)CC4)nc3c(Oc4c(Cl)c(F)cc5[nH]ncc45)nccc23)CC1 [Example 42I, 1-(4-{8-[(5-chloro-6-fluoro-1H-indazol-4-yl)oxy]-2-[(2-methyl-1,2,3,4-tetrahydro-isoquinolin-8-yl)oxy]pyrido [3,4-d]pyrimidin-4-yl}piperazin-1-yl)prop-2-en-1-one]
MSRA (% modification) 5.0 μM 0.017 hr [1]: 73% | IC50 (KRAS G12C): 0.01 µM

C=CC(=O)N1CCN(c2ncnc3c(Oc4c(CC)ccc5[nH]ncc45)nccc23)CC1 [Example 07A, 1-(4-{8-[(5-ethyl-1H-indazol-4-yl)oxy]pyrido[3,4-d]pyrimidin-4-yl}piperazin-1-yl)prop-2-en-1-one]
MSRA (% modification) 10 μM 0.50 hr [1]: 16% | IC50 (KRAS G12C): 7.15 µM

C=CC(=O)N1CCN(c2nc(O[C@@H]3CN(C)C[C@H]3C(F)F)nc3c(Oc4c(Cl)c(F)cc5[nH]ncc45)nccc23)CC1 (racemic) [Example 36I, rac-1-[4-(8-[(5-chloro-6-fluoro-1H-indazol-4-yl)oxy]-2-{[(3S,4R)-4-(difluoro-methyl)-1-methyl-pyrrolidin-3-yl]oxy}pyrido [3,4-d]pyrimidin-4-yl)piperazin-1-yl]prop-2-en-1-one]
MSRA (% modification) 5.0 μM 0.017 hr [1]: 57% | IC50 (KRAS G12C): 0.029 µM

C=CC(=O)N1CCN(c2nc(O[C@@H]3CN(C)C[C@H]3CC)nc3c(Oc4c(Cl)c(F)cc5[nH]ncc45)nc(Cl)cc23)CC1 (racemic) [Example 28G, rac-1-[4-(6-chloro-8-[(5-chloro-6-fluoro-1H-indazol-4-yl)oxy]-2-{[(3S,4R)-4-ethyl-1-methylpyrrolidin-3-yl]oxy}pyrido[3,4-d]pyrimidin-4-yl)piperazin-1-yl]prop-2-en-1-one]
MSRA (% modification) 5.0 μM 0.017 hr [1]: 60% | IC50 (KRAS G12C): 0.037 µM

C=CC(=O)N1CCN(c2nc(OC[C@@H]3C[C@H](F)CN3C)nc3c(Oc4c(Cl)c(F)cc5[nH]ncc45)nccc23)CC1 [Example 11H, 1-[4-(8-[(5-chloro-6-fluoro-1H-indazol-4-yl)oxy]-2-{[(2S,4S)-4-fluoro-1-methylpyrrolidin-2-yl]methoxy}pyrido[3,4-d]pyrimidin-4-yl)piperazin-1-yl]prop-2-en-1-one]
MSRA (% modification) 10 μM 0.25 hr [1]: 80% | IC50 (KRAS G12C): 0.237 µM

C=CC(=O)N1CCN(c2ncnc3c(Oc4c(Cl)c(F)cc5[nH]ncc45)nc(Cl)cc23)[C@@H](CO)C1 [Example 38A, 1-[(3R)-4-{6-chloro-8-[(5-chloro-6-fluoro-1H-indazol-4-yl)oxy]pyrido[3,4-d]pyrimidin-4-yl}-3-(hydroxymethyl)piperazin-1-yl]prop-2-en-1-one]
MSRA (% modification) 10 μM 0.25 hr [1]: 56% | IC50 (KRAS G12C): 0.537 µM

C=CC(=O)N1CCN(c2nc(OCCN3CCCC3)nc3c(Oc4c(C)ccc5[nH]ncc45)nccc23)CC1 [Example 12B, 1-(4-{8-[(5-methyl-1H-indazol-4-yl)oxy]-2-[2-(pyrrolidin-1-yl)ethoxy]pyrido[3,4-d]pyrimidin-4-yl}piperazin-1-yl)prop-2-en-1-one]
MSRA (% modification) 10 μM 0.25 hr [1]: 21% | IC50 (KRAS G12C): 5.45 µM

C=CC(=O)N1CCN(c2ncnc3c(Oc4c(Cl)c(F)cc5[nH]ncc45)nc(Cl)cc23)C[C@@H]1C [Example 36A, 1-[(2S)-4-{6-chloro-8-[(5-chloro-6-fluoro-1H-indazol-4-yl)oxy]pyrido[3,4-d]pyrimidin-4-yl}-2-methylpiperazin-1-yl]prop-2-en-1-one]
MSRA (% modification) 10 μM 0.25 hr [1]: 31% | IC50 (KRAS G12C): 4.7 µM

C=CC(=O)N1CCN(c2ncnc3c(Oc4c(C)c(Cl)cc5[nH]ncc45)nccc23)C[C@H]1C [Example 24A, 1-[(2R)-4-{8-[(6-chloro-5-methyl-1H-indazol-4-yl)oxy]pyrido[3,4-d]pyrimidin-4-yl}-2-methylpiperazin-1-yl]prop-2-en-1-one]
MSRA (% modification) 10 μM 0.50 hr [1]: 20% | IC50 (KRAS G12C): 4.72 µM

C=CC(=O)N1CCN(c2nc(O[C@@H]3CN(C)C[C@H]3OC)nc3c(Oc4c(C)ccc5[nH]ncc45)nc(Cl)cc23)CC1 [Example 35G, 1-[4-(6-chloro-2-{[(3R,4R)-4-methoxy-1-methylpyrrolidin-3-yl]oxy}-8-[(5-methyl-1H-indazol-4-yl)oxy]pyrido[3,4-d]pyrimidin-4-yl)piperazin-1-yl]prop-2-en-1-one]
MSRA (% modification) 5.0 μM 0.017 hr [1]: 75% | IC50 (KRAS G12C): 0.027 µM

C=CC(=O)N1CCN(c2ncnc3c(Oc4c(Cl)ccc5[nH]ncc45)cccc23)C[C@@H]1C [Example 07C, 1-[(2S)-4-{8-[(5-chloro-1H-indazol-4-yl)oxy]quinazolin-4-yl}-2-methylpiperazin-1-yl]prop-2-en-1-one]
MSRA (% modification) 10 μM 0.50 hr [1]: 15% | IC50 (KRAS G12C): 5.67 µM

C=CC(=O)N1CCN(c2ncnc3c(Oc4c(Cl)c(F)cc5[nH]ncc45)nccc23)C[C@H]1C [Example 25A, 1-[(2R)-4-{8-[(5-chloro-6-fluoro-1H-indazol-4-yl)oxy]pyrido[3,4-d]pyrimidin-4-yl}-2-methylpiperazin-1-yl]prop-2-en-1-one]
MSRA (% modification) 10 μM 0.50 hr [1]: 17% | IC50 (KRAS G12C): 8.89 µM

[2H]C([2H])([2H])N1C[C@@H](OC)[C@H](Oc2nc(N3CCN(C(=O)C=C)CC3)c3cc(Cl)nc(Oc4c(Cl)c(F)cc5[nH]ncc45)c3n2)C1 [Example 41G, 1-[4-(6-chloro-8-[(5-chloro-6-fluoro-1H-indazol-4-yl)oxy]-2-{[(3R,4R)-4-methoxy-1-(^2H3)methylpyrrolidin-3-yl]oxy}pyrido[3,4-d]pyrimidin-4-yl)piperazin-1-yl]prop-2-en-1-one]
MSRA (% modification) 5.0 μM 0.017 hr [1]: 83% | IC50 (KRAS G12C): 0.007 µM

C=CC(=O)N1CCN(c2nc(NCc3nc(C)c[nH]3)nc3c(Oc4c(C)ccc5[nH]ncc45)cccc23)CC1 [Example 01F, 1-[4-(2-{[(4-methyl-1H-imidazol-2-yl)methyl]amino}-8-[(5-methyl-1H-indazol-4-yl)oxy]quinazolin-4-yl)piperazin-1-yl]prop-2-en-1-one]
MSRA (% modification) 10 μM 0.50 hr [1]: 35% | IC50 (KRAS G12C): 9.34 µM

C=CC(=O)N1CCN(c2nc(OC[C@@H]3CCCN3C)nc3c(Oc4c(Cl)c(C)cc5[nH]ncc45)nccc23)CC1 [Example 09H, 1-[4-(8-[(5-chloro-6-methyl-1H-indazol-4-yl)oxy]-2-{[(2S)-1-methylpyrrolidin-2-yl]methoxy}pyrido[3,4-d]pyrimidin-4-yl)piperazin-1-yl]prop-2-en-1-one]
MSRA (% modification) 5.0 μM 0.25 hr [1]: 78% | MSRA (% modification) 10 μM 0.25 hr [1]: 81% | MSRA (% modification) 10 μM 0.50 hr [1]: 83% | IC50 (KRAS G12C): 0.239 µM

C=CC(=O)N1CCN(c2nc(OC[C@@H]3CCOC3)nc3c(Oc4c(Cl)c(F)cc5[nH]ncc45)nccc23)CC1 [Example 05H, 1-(4-{8-[(5-chloro-6-fluoro-1H-indazol-4-yl)oxy]-2-[(3R)-tetrahydrofuran-3-ylmethoxy]pyrido[3,4-d]pyrimidin-4-yl}piperazin-1-yl)prop-2-en-1-one]
MSRA (% modification) 5.0 μM 0.25 hr [1]: 54% | MSRA (% modification) 10 μM 0.25 hr [1]: 68% | IC50 (KRAS G12C): 0.414 µM

C=CC(=O)N1CCN(c2ncnc3c(Oc4c(C)c(Cl)cc5[nH]ncc45)nc(C#N)cc23)C[C@H]1C [Example 27A, 4-[(3R)-4-acryloyl-3-methylpiperazin-1-yl]-8-[(6-chloro-5-methyl-1H-indazol-4-yl)oxy]pyrido[3,4-d]pyrimidine-6-carbonitrile]
MSRA (% modification) 10 μM 0.50 hr [1]: 30% | IC50 (KRAS G12C): 13.3 µM

C=CC(=O)N1CCN(c2nc(OC[C@@H]3CCCN3C)nc3c(Oc4c(C)ccc5[nH]ncc45)nc(Cl)cc23)CC1 [Example 03G, 1-[4-(6-chloro-8-[(5-methyl-1H-indazol-4-yl)oxy]-2-{[(2S)-1-methylpyrrolidin-2-yl]methoxy}pyrido[3,4-d]pyrimidin-4-yl)piperazin-1-yl]prop-2-en-1-one]
MSRA (% modification) 10 μM 0.25 hr [1]: 72% | IC50 (KRAS G12C): 0.155 µM

C=CC(=O)N1CCN(c2nc(OC[C@@H]3CCCN3C)nc3c(Oc4c(C)c(F)cc5[nH]ncc45)nccc23)CC1 [Example 04I, 1-[4-(8-[(6-fluoro-5-methyl-1H-indazol-4-yl)oxy]-2-{[(2S)-1-methyl-pyrrolidin-2-yl]methoxy}pyrido [3,4-d]pyrimidin-4-yl)piperazin-1-yl]prop-2-en-1-one]
MSRA (% modification) 5.0 μM 0.25 hr [1]: 55% | IC50 (KRAS G12C): 0.375 µM

C=CC(=O)N1CCN(c2nc(O[C@@H]3CN(C)C[C@H]3OC)nc3c(Oc4c(Cl)c(Cl)cc5[nH]ncc45)nccc23)CC1 [Example 19H, 1-[4-(8-[(5,6-dichloro-1H-indazol-4-yl)oxy]-2-{[(3R,4R)-4-methoxy-1-methylpyrrolidin-3-yl]oxy}pyrido[3,4-d]pyrimidin-4-yl)piperazin-1-yl]prop-2-en-1-one]
MSRA (% modification) 5.0 μM 0.017 hr [1]: 66% | IC50 (KRAS G12C): 0.004 µM

C=CC(=O)N1CCN(c2nc(OCCN(C)C)nc3c(Oc4c(Cl)c(C)cc5[nH]ncc45)nccc23)CC1 [Example 05E, 1-(4-{8-[(5-chloro-6-methyl-1H-indazol-4-yl)oxy]-2-[2-(dimethylamino)ethoxy]pyrido[3,4-d]pyrimidin-4-yl}piperazin-1-yl)prop-2-en-1-one]
MSRA (% modification) 10 μM 0.25 hr [1]: 72% | MSRA (% modification) 10 μM 0.50 hr [1]: 76% | IC50 (KRAS G12C): 0.559 µM

C=CC(=O)N1CCN(c2ncnc3c(Cc4c(C)ccc5[nH]ncc45)cccc23)CC1 [Example 01D, 1-(4-{8-[(5-methyl-1H-indazol-4-yl)methyl]quinazolin-4-yl}piperazin-1-yl)prop-2-en-1-one]
MSRA (% modification) 10 μM 0.50 hr [1]: 37% | IC50 (KRAS G12C): 6.69 µM

Reference: US10662204B2 (PFIZER INC., priority 2018, dated 2020)
